The source of these data is publication PMC4719211, “Comparative Pharmacokinetics of three major bioactive components in rats after oral administration of Typhae Pollen-Trogopterus Feces drug pair before and after compatibility” (DARU Journal of Pharmaceutical Sciences, 2016).

Molecules are shown by their SMILES.

This series is described as follows: Pharmacokinetic study in rats after oral administration of Typhae Pollen / Typhae Pollen-Trogopterus Feces decoctions (plasma, UPLC-TQ/MS). The class given is in vivo, female Sprague–Dawley (SD) rats. The conditions noted are these: n = 6, noncompartment model; for Cmax / Tmax / half-life: female, Sprague-Dawley, rat, po; for AUC0~t: rat plasma. The procedure:
An ACQUITY UPLC BEH C18 column (2.1 mm × 100 mm, 1.7 μm, Waters Corp., Milford, MA, USA) was applied and the column temperature was maintained at 35 °C. The mobile phase was composed of A (0.1 % aqueous formic acid) and B (acetonitrile) using a gradient elution of 5–10 % B at 0–1 min, 10–30 % B at 1–6 min, 30–40 % B at 6–7 min, 40–95 % B at 7–8 min, 95–5 % B at 8–9 min, […] with a flow rate set at 0.4 mL/min. The auto-sampler was conditioned at 4 °C and the injection volume was 5 μL.
Mass spectrometry detection was performed by using a Xevo Triple Quadrupole MS (Waters Corp., Milford, MA) equipped with an electrospray ionization source (ESI). The ESI source was set in positive ionization mode. The scanning mode was set multiple reaction monitoring (MRM) mode. Parameters set in the source were as follows: the capillary voltage at 1 kV; sampling cone voltage of 30 V; source temperature […]; desolvation temperature 550 °C; dwell time was automatically set by MassLynx (Waters Corp., Milford, MA, USA).
A 200 μL aliquot of plasma sample was added with 10 μL diphenhydramine hydrochloride working solution and 600 μL of methanol. After vortex for 2 min and centrifugation at 13,000 rpm for 10 min, the supernatant was transferred to another 1.5 mL tube and concentrated in the centrifuge enrichment apparatus at 37 °C.
Finally, each residue was reconstituted in 200 μL 70 % methanol, then vortexed for 3 min and centrifuged at 13,000 rpm for 10 min. 5 μL of supernatant was injected into the UPLC-TQ/MS system for analysis.
All experiments were performed on female Sprague–Dawley (SD) rats, weighing 220–250 g, obtained from Shanghai Slac Laboratory Animal Co., Ltd. (Shanghai, China). They were kept in plastic cages at 22 ± 2 °C and a relative humidity of 50–65 %, with free access to pellet food and water on a 12 h light/dark cycle. Animal welfare and experimental procedures strictly conformed to the Guide for the Care and Use of Laboratory Animals and the related ethics regulations of Nanjing University of Chinese Medicine.
For pharmacokinetic studies, the SD rats were divided into four groups randomly (n = 6 per group), and housed with unlimited access to food before the experiment while water available. Each group except the control group was oral administration of TP (CN) single drug decoction, TP-TF co-decoction (CM) and TP-TF mixed decoction (CB) at a dosage of 5 g/kg, 10 g/kg, 10 g/kg body weight, respectively. Blood samples (0.5 mL) were collected at certain time points and placed at a 1.5 mL tube before oral (0 min) and after oral (5, 15, 30, 45, 60, 120, 240, 360, 480, 720 and 1440 min) administration. Afterwards all the blood samples were centrifuged at 13,000 rpm for 10 min and stored at −80 °C until analysis.
The mean plasma concentration-time profiles of typhaneoside, vanillic acid and p-coumaric acid were determined after oral administration with different compatibility of Typhae Pollen-Trogopterus Feces drug pair in rats, the concentration-time curves are presents in Fig. 3, and the noncompartment model pharmacokinetic parameters including maximum plasma concentration (Cmax), time to reach the maximum concentrations (Tmax), half-time (T1/2), area under concentration-time curve (AUC 0~t) are summarized in Table 2.

Setting [1] is: in vivo, 5 g/kg, oral TP single drug decoction (CN).
[2] abbreviates: in vivo, 10 g/kg, oral TP-TF co-decoction (CM).
[3] abbreviates: in vivo, 10 g/kg, oral TP-TF mixed decoction (CB).
[4] abbreviates: oral TP single drug decoction (CN), 5 g/kg.
The mark [5] stands for this setting: oral TP-TF co-decoction (CM), 10 g/kg.
The mark [6] stands for this setting: oral TP-TF mixed decoction (CB), 10 g/kg.
[7] abbreviates: plasma, 5 g/kg, oral TP single drug decoction (CN).
Setting [8] is: plasma, 10 g/kg, oral TP-TF co-decoction (CM).
Where [9] appears, read: plasma, 10 g/kg, oral TP-TF mixed decoction (CB).

With `COc1cc(-c2oc3cc(O)cc(O)c3c(=O)c2O[C@@H]2O[C@H](CO[C@@H]3O[C@@H](C)[C@H](O)[C@@H](O)[C@H]3O)[C@@H](O)[C@H](O)[C@H]2O[C@@H]2O[C@@H](C)[C@H](O)[C@@H](O)[C@H]2O)ccc1O` [Typhaneoside, typhaneoside], the Cmax is, setting by setting: under setting [1], 76.4 ± 53.2 ng/mL; under setting [2], 371 ± 316 ng/mL; under setting [3], 214 ± 73.7 ng/mL. For the same molecule, the Tmax by setting is: under setting [1], 2.95 ± 2.88 h; under setting [2], 0.24 ± 0.15 h; under setting [3], 0.21 ± 0.08 h. The half-life under setting [1] is 3.35 ± 2.58 h, the half-life under setting [2] is 1.91 ± 1.26 h and the half-life under setting [3] was 1.37 ± 0.54 h. The “AUC0~t” value under setting [4] amounted to 268.31 ± 167.71 ng/h/mL, the “AUC0~t” value under setting [5] is 333.46 ± 191.84 ng/h/mL and the “AUC0~t” value under setting [6] is on record as 275.62 ± 206.06 ng/h/mL.
Consider `COc1cc(C(=O)O)ccc1O` [Vanillic acid, vanillic acid], for which the Cmax is, setting by setting: under setting [7], 2210 ± 1190 ng/mL; under setting [8], 3870 ± 2530 ng/mL; under setting [9], 1450 ± 501 ng/mL. The Tmax under setting [7] is 1.25 ± 0.71 h, the Tmax under setting [8] worked out at 1.47 ± 3.2 h and the Tmax under setting [9] was 0.17 ± 0.09 h. Further, the half-life under setting [7] is 3.69 ± 0.87 h, the half-life under setting [8] was 11.2 ± 13.6 h and the half-life under setting [9] is 8.88 ± 3.76 h. Besides, the “AUC0~t” value was determined as 10445.53 ± 4148.68 ng/h/mL under setting [4], 14137.57 ± 4540.37 ng/h/mL under setting [5] and 6193.78 ± 4499.17 ng/h/mL under setting [6].
With `O=C(O)/C=C/c1ccc(O)cc1` [P-coumaric acid, p-coumaric acid], the peak level under setting [7] (Cmax) was 4900 ± 1890 ng/mL, the concentration under setting [8] peaked (Cmax) at 5110 ± 3670 ng/mL and the Cmax under setting [9] came to 4190 ± 844 ng/mL. Moreover, the Tmax is, setting by setting: under setting [7], 1.08 ± 1.67 h; under setting [8], 1.42 ± 1.39 h; under setting [9], 0.46 ± 0.4 h. The half-life was 3.67 ± 1.82 h under setting [7], 10.1 ± 7.86 h under setting [8] and 10.1 ± 10.2 h under setting [9]. Moreover, the “AUC0~t” value runs as follows: under setting [4], 36881.01 ± 25783.25 ng/h/mL; under setting [5], 41512.56 ± 41763.28 ng/h/mL; under setting [6], 17689.11 ± 3882.21 ng/h/mL.

For orientation: Cmax means the peak of the concentration-time curve. One may read the Tmax as the time at which the peak concentration occurs. As usually defined, the half-life is the time needed for the level to fall by half in the phase considered.
